From US11560381B1, “Compounds and uses thereof” (Foghorn Therapeutics Inc., priority 2019, dated 2023)
Where two headings read alike, the source gives them in different places. One block for each compound: values may come before it.

Tests used:
[1] = target: 3×FLAG-NLuc-BRD9 (Nano luciferase-BRD9 fusion protein) in SYO-1 cells (Homo sapiens (Human), UniProt Q9H8M2); test: SYO1 BRD9 NanoLuc degradation assay; format: cell-based; settings: SYO-1 cells expressing 3×FLAG-NLuc-BRD9, 6 hours incubation, read-out: SYO1 BRD9-NanoLuc degradation IC50
3×FLAG-NLuc-BRD9 (Nano luciferase-BRD9 fusion protein) in SYO-1 cells, sequence (Q9H8M2 whole entry, the tested form may be a part): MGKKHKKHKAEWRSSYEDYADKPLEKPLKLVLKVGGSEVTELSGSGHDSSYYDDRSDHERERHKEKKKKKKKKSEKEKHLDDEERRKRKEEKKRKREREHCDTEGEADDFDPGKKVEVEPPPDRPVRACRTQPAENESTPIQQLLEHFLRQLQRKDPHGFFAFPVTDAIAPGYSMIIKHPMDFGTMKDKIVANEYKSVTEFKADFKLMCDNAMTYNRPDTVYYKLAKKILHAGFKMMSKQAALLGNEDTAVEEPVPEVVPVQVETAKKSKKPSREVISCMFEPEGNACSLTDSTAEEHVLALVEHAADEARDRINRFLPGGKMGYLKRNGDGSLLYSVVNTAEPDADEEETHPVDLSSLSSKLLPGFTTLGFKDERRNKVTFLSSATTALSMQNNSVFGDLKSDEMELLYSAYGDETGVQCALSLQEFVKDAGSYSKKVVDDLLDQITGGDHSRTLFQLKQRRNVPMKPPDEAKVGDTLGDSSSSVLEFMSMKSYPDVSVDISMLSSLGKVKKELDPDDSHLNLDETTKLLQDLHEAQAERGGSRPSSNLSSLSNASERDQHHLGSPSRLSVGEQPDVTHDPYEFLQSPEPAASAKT
Description: Procedure: A stable SYO-1 cell line expressing 3×FLAG-NLuc-BRD9 was generated. On day 0 cells were seeded in 30 μL media into each well of 384-well cell culture plates. The seeding density was 8000 cells/well. On day 1, cells were treated with 30 nL DMSO or 30 nL of 3-fold serially DMSO-diluted compounds (10 points in duplicates with 1 μM as final top dose). Subsequently plates were incubated for 6 hours in a standard tissue culture incubator and equilibrated at room temperature for 15 minutes. Nanoluciferase activity was measured by adding 15 μL of freshly prepared Nano-Glo Luciferase Assay Reagent (Promega N1130), shaking the plates for 10 minutes and reading the bioluminescence using an EnVision reader.
Results: The Inhibition % was calculated using the following formula: % Inhibition=100×(LuMHC−Lumsample)/(LumHC−LumLC). DMSO treated cells are employed as High Control (HC) and 1 μM of a known BRD9 degrader standard treated cells are employed as Low Control (LC).

[2] = target: BRD9 bromodomain (Flag-BRD9 P133-K239) (Homo sapiens (Human), UniProt Q9H8M2); test: BRD9 bromodomain TR-FRET competition binding assay; settings: Table 4; 3 nM Flag-BRD9, 3.75 nM biotinylated ligand, 90 minutes at room temperature
BRD9 bromodomain (Flag-BRD9 P133-K239), sequence (Q9H8M2 133-239): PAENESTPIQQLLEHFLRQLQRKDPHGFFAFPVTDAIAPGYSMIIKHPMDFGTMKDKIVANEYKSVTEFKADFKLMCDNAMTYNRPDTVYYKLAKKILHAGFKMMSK
Description: Procedure: His-Flag-BRD9 (P133-K239; Swiss Prot Q9H8M2; SEQ ID NO:1 mgsshhhhhhenlyfq/gdykddddkgslevlfqg/[…] […]) was cloned, expressed, purified, and then treated with TEV protease. Cleaved His tag was removed by purification. The binding of a biotinylated small molecule ligand of BRD9 was assessed via the LANCE® TR-FRET platform (PerkinElmer), and the compounds were assayed for inhibitory activity against this interaction.
A mixture of biotinylated-ligand and SureLight™ Allophycocyanin-Streptavidin (APC-SA, PerkinElmer AD0201) in 50 mM HEPES (pH 7.4), 50 mM NaCl, 1 mM TCEP (pH 7), 0.01% (v/v) Tween-20, 0.01% (w/v) bovine serum albumin was added to a white 384-well PerkinElmer Proxiplate Plus plate. DMSO or 3-fold serially diluted compounds were then added to the Proxiplate followed by addition of Flag-BRD9. After a 10-minute incubation at room temperature, Eu-W1024 anti-FLAG (PerkinElmer, AD0273) was added. The final reaction mixture that contained 3.75 nM biotinylated ligand, 3 nM Flag-BRD9, 7.5 nM SureLight™ Allophycocyanin-Streptavidin, and 0.2 nM Eu-W1024 anti-FLAG was incubated at room temperature for 90 minutes.
Results: The plates were then read on a PerkinElmer Envision plate reader to determine the ratio of emission at 665 nm over 615 nm. […]

[3] = tested on: synovial sarcoma cell lines (SYO1, HS-SY-II, ASKA); test: Growth of synovial sarcoma cell lines, 14-day crystal violet staining; format: cell-based; settings: for inhibition of cell growth: SYO1, HS-SY-II, ASKA, treated daily, day 14, FIG. 8
Description: (§1) Procedure: Cells were seeded into 6-well or 12-well plates and were treated daily with a BRD9 degrader (Compound 1), a bromo-domain BRD9 binder (Compound 2), E3 ligase binder (lenalidomide), DMSO, or staurosporin (positive control for cell killing), at indicated concentrations. The number of cells was optimized for each cell line. Growth media was refreshed every 5 days. By day 14, medium was removed, cells were washed with PBS, and stained using 500 μL of 0.005% (w/v) crystal violet solution in 25% (v/v) methanol for at least 1 hour at room temperature. Subsequently plates were scanned on an Odyssey CLx Imaging system.

[4] = tested on: non-synovial control cancer cell lines (293T, A549, G401); test: Growth of non-synovial control cancer cell lines (crystal violet, colony imaging); format: cell-based; settings: FIGS. 5, 6, 7
Description: (§2) Cells were seeded into 12-well plates and treated with DMSO, 1 μM BRD9 inhibitor, Compound 2 (also known as BI-7273, see Martin et al, J Med Chem. 59(10):4462-4475 (2016); see structure of Compound 2 below), or 1 μM BRD9 degrader, Compound 1.
(§3) The number of cells was optimized for each cell line. Growth medium and compounds were refreshed every 3-5 days. SYO1, Yamato, A549, 293T and HS-SY-II cells were fixed and stained at day 11. ASKA cells were fixed and stained at day 23. Staining was done by incubation with crystal violet solution (0.5 g Crystal Violet, 27 ml 37% Formaldehyde, 100 mL 10×PBS, 10 mL Methanol, 863 dH20 to 1 L) for 30 min followed by 3× washes with water and drying the plates for at least 24 h at room temperature. Subsequently plates were scanned on an Odyssey CLx Imaging system (FIG. 6).
(§4) Cells were seeded into 96-well ultra low cluster plate (Costar, #7007) in 200 μL complete media and treated at day 2 with DMSO, Staurosporin, or BRD9 degarder, Compound 1, at indicated doses (FIG. 7). Media and compounds were changed every 5 d and cell colonies were imaged at day 14.

[5] = tested on: synovial sarcoma cell lines (SYO1, Yamato, HS-SY-II, ASKA); test: Growth of synovial sarcoma cell lines (IncuCyte confluency, crystal violet, colony imaging); format: cell-based; settings: 1 μM or indicated concentrations, FIGS. 5, 6, 7
Description: Cells were treated with DMSO or the BRD9 degrader, Compound 1, at indicated concentrations, and proliferation was monitored from day 7 to day 14 by measuring confluency overtime using an IncuCyte live cell analysis system (FIG. 5). Growth medium and compounds were refreshed every 3-4 days.
as §2, §3, §4

SYO1 cells = test: Cell cycle analysis (Click-iT Plus EdU Flow Cytometry Assay); format: cell-based; settings: SYO1, 200 nM or 1 μM, 8 or 13 days, compared to DMSO and lenalidomide
Description: Procedure: SYO1 cells were treated for 8 or 13 days with DMSO, a BRD9 degrader (Compound 1) at 200 nM or 1 μM, or an E3 ligase binder (lenalidomide) at 200 nM. Compounds were refreshed every 5 days. Cell cycle analysis was performed using the Click-iT™ Plus EdU Flow Cytometry Assay (Invitrogen). The apoptosis assay was performed using the Annexin V-FITC Apoptosis Detection Kit (Sigma A9210). Assays were performed according to the manufacturer's protocol.

[6] = tested on: non-synovial control cancer cell lines (RD, HCT116, Calu6); test: Growth of non-synovial control cancer cell lines, 14-day crystal violet staining; format: cell-based; settings: treated daily, day 14, FIG. 9
Description: as §1

SMILES: COc1cc(-c2cc(C)c(=O)n(C)c2)cc(OC)c1CN1CC(C#Cc2ccc3c(c2)C(=O)N(C2CCC(=O)NC2=O)C3)C1C (stereo not drawn) [Compound D453]
DC50 ([1]; Table 5C): < 10 nM

SMILES: COc1cc(-c2cn(C)c(=O)c3c[nH]nc23)cc(OC)c1CN1CCC2(CC1)CN(c1ccc3c(c1)C(=O)N(C1CCC(=O)NC1=O)C3)C2 (stereo not drawn) [Compound D420]
DC50 ([1]; Table 5C): < 10 nM

SMILES: COc1cc(-c2cc(C)c(=O)n(C)c2)cc(OC)c1CN1CC(C)(C#Cc2ccc3c(c2)C(=O)N(C2CCC(=O)NC2=O)C3)C1 (stereo not drawn) [Compound D450]
DC50 ([1]; Table 5C): < 10 nM

SMILES: COc1cc(-c2cn(C)c(=O)c3[nH]ccc23)cc(OC)c1CN1CCC2(CC1)CN(c1ccc3c(c1)C(=O)N(C1CCC(=O)NC1=O)C3)C2 (stereo not drawn) [Compound D419]
DC50 ([1]; Table 5C): < 10 nM

SMILES: COc1cc(-c2cn(C)c(=O)c3cnccc23)cc(OC)c1CN(C)CC(=O)NCCOCCOCCNc1cccc2c1C(=O)N(C1CCC(=O)NC1=O)C2=O (stereo not drawn) [Compound 1]
inhibition of cell growth [3]: inhibition of the growth of the cells
growth inhibition compared among tested agents ([3]; all synovial cell lines, versus Compound 2 and lenalidomide): most significant growth inhibition in all synovial cell lines
inhibition of cell growth [4]: does not result in inhibition of the growth
inhibition of cell growth [5]: inhibition of the growth of the cells
numbers of cells in the S-phase of the cell cycle (SYO1 cells): reduced numbers of cells in the S-phase of the cell cycle
inhibition of cell growth [6]: did not result in inhibition of the growth

SMILES: C/C=C/Cn1cc(-c2ccc(CN3CCN(S(=O)(=O)c4ccc5c(c4)C(=O)N(C4CCC(=O)NC4=O)C5)CC3)c(Cl)c2)n2cncc2c1=O (stereo not drawn) [Compound D464]
DC50 ([1]; Table 5C): ≥ 1000 nM

SMILES: COc1cc(-c2cc(C(F)F)c(=O)n(C)c2)cc(OC)c1CN1CC(C#Cc2ccc3c(c2)C(=O)N(C2CCC(=O)NC2=O)C3)C1 (stereo not drawn) [Compound D439]
DC50 ([1]; Table 5C): < 10 nM

SMILES: COc1cc(-c2cn(C)c(=O)c3cnccc23)cc(OC)c1CN(C)C [Compound 2]
inhibition of cell growth [3]: inhibition of the growth of the cells
inhibition of cell growth [4]: does not result in inhibition of the growth
inhibition of cell growth [5]: inhibition of the growth of the cells
inhibition of cell growth [6]: did not result in inhibition of the growth

SMILES: COc1cc(-c2cn(C)c(=O)c3cnccc23)cc(OC)c1CN(C)CCCCNC1CC2(CCN(c3ccc4c(c3)C(=O)N(C3CNC(=O)CC3=O)C4=O)CC2)C1 (stereo not drawn) [Compound D247]
DC50 ([1]; Table 5B): < 10 nM

More lines, now with the values ahead:

DC50 ([1]; Table 5B): 10 to 100 nM
SMILES: COc1cc(-c2cn(C)c(=O)c3cnccc23)cc(OC)c1CN(C)CCCCN1CC2(CCN(c3ccc4c(c3)C(=O)N(C3CCC(=O)NC3=O)C4=O)C2)C1 (stereo not drawn) [Compound D248]

DC50 ([1]; Table 5B): < 10 nM
SMILES: COc1cc(-c2cn(C)c(=O)c3cnccc23)cc(OC)c1CN1CC(n2cc(COCc3ccc4c(c3)C(=O)N(C3CCC(=O)NC3=O)C4=O)nn2)C1 (stereo not drawn) [Compound D298]

DC50 ([1]; Table 5B): < 10 nM
SMILES: COc1cc(-c2cn(C)c(=O)c3cnccc23)cc(OC)c1CN1CCC2(CC1)CCN(C(=O)CCC#Cc1ccc3c(c1)C(=O)N(C1CCC(=O)NC1=O)C3=O)C2 (stereo not drawn) [Compound D220]

IC50 [2]: 10 to 100 nM
DC50 ([1]; Table 5A): 10 to 100 nM
SMILES: COc1cc(-c2cn(C)c(=O)c3cnccc23)cc(OC)c1CN1CCC(COC2CCN(C(=O)CCOCCOc3cccc4c3C(=O)N(C3CCC(=O)NC3=O)C4=O)C2)CC1 (stereo not drawn) [Compound D94]

IC50 [2]: < 10 nM
DC50 ([1]; Table 5A): 10 to 100 nM
SMILES: COc1cc(-c2cn(C)c(=O)c3cnccc23)cc(OC)c1CN1CC2(CCN(C(=O)CCOCCOc3cccc4c3C(=O)N(C3CCC(=O)NC3=O)C4=O)C2)C1 (stereo not drawn) [Compound D90]
